Assay results as given in patent publication US7118895B2, “Process for producing aglycon by using diglycosidase and flavor-improved food containing the aglycon and converting agent to be used in the process” (Amano Enzyme Inc., priority 2000, dated 2006).

Tested on: Crude diglycosidase
Experiment: Examination of pH in the conversion into isoflavone aglycons by diglycosidase using soybean materials
Type: biochemical, Penicillium multicolor IAM7153
Conditions: for existing ratio of aglycon of each isoflavone family / Decomposition efficiency of glycitin family in roasted soy flour / Decomposition efficiency of glycitin family in soymilk: 55° C.
Summary of the method: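 Soybean materials (roasted soy flour, soymilk, defatted soybean, concentrated soy protein) suspended and adjusted to pH 2–11. Crude diglycosidase added at 1.88 AU/mL enzyme solution and reacted at 55° C. Ethanol-stopped at 0, 1, 3 and 6 h; isoflavone glycosides and aglycons detected by HPLC.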

[1] = pH6.6, heat treatment of enzyme: no, reaction time 0 h
[2] = pH6.6, heat treatment of enzyme: no, reaction time 1 h
[3] = pH6.6, heat treatment of enzyme: no, reaction time 3 h
[4] = pH6.6, heat treatment of enzyme: no, reaction time 6 h
[5] = pH6.6, heat treatment of enzyme: yes, reaction time 6 h

## COc1cc2c(=O)c(-c3ccc(O)cc3)coc2cc1O [glycitein]
Concentrated soybean protein, pH 3.7 for 6 hours
  existing ratio of aglycon of each isoflavone family: 78%
Defatted soybean, pH 3.4 for 6 hours
  existing ratio of aglycon of each isoflavone family: 68%
pH1.6, heat treatment of enzyme: no, reaction time 0 h
  Decomposition efficiency of glycitin family in concentrated soybean protein: 11.3%
pH1.6, heat treatment of enzyme: no, reaction time 1 h
  Decomposition efficiency of glycitin family in concentrated soybean protein: 11.6%
pH1.6, heat treatment of enzyme: no, reaction time 3 h
  Decomposition efficiency of glycitin family in concentrated soybean protein: 11.7%
pH1.6, heat treatment of enzyme: no, reaction time 6 h
  Decomposition efficiency of glycitin family in concentrated soybean protein: 11.7%
pH1.6, heat treatment of enzyme: yes, reaction time 6 h
  Decomposition efficiency of glycitin family in concentrated soybean protein: 10.8%
pH2, heat treatment of enzyme no, reaction time 0 h
  Decomposition efficiency of glycitin family in roasted soy flour: 7.9
pH2, heat treatment of enzyme no, reaction time 1 h
  Decomposition efficiency of glycitin family in roasted soy flour: 9.4
pH2, heat treatment of enzyme no, reaction time 3 h
  Decomposition efficiency of glycitin family in roasted soy flour: 9.5
pH2, heat treatment of enzyme no, reaction time 6 h
  Decomposition efficiency of glycitin family in roasted soy flour: 10.1
pH2, heat treatment of enzyme yes, reaction time 6 h
  Decomposition efficiency of glycitin family in roasted soy flour: 10.4
pH2.3, heat treatment of enzyme no, reaction time 0 h
  Decomposition efficiency of glycitin family in soymilk: 7.2
pH2.3, heat treatment of enzyme no, reaction time 1 h
  Decomposition efficiency of glycitin family in soymilk: 48.7
pH2.3, heat treatment of enzyme no, reaction time 3 h
  Decomposition efficiency of glycitin family in soymilk: 52.3
pH2.3, heat treatment of enzyme no, reaction time 6 h
  Decomposition efficiency of glycitin family in soymilk: 53.5
pH2.3, heat treatment of enzyme yes, reaction time 6 h
  Decomposition efficiency of glycitin family in soymilk: 6.9
pH2.6, heat treatment of enzyme: no, reaction time 0 h
  Decomposition efficiency of glycitin family in defatted soybean: not detected
pH2.6, heat treatment of enzyme: no, reaction time 1 h
  Decomposition efficiency of glycitin family in defatted soybean: not detected
pH2.6, heat treatment of enzyme: no, reaction time 3 h
  Decomposition efficiency of glycitin family in defatted soybean: not detected
pH2.6, heat treatment of enzyme: no, reaction time 6 h
  Decomposition efficiency of glycitin family in defatted soybean: not detected
pH2.6, heat treatment of enzyme: yes, reaction time 6 h
  Decomposition efficiency of glycitin family in defatted soybean: not detected
pH2.7, heat treatment of enzyme: no, reaction time 0 h
  Decomposition efficiency of glycitin family in concentrated soybean protein: 11.3%
pH2.7, heat treatment of enzyme: no, reaction time 1 h
  Decomposition efficiency of glycitin family in concentrated soybean protein: 25.0%
pH2.7, heat treatment of enzyme: no, reaction time 3 h
  Decomposition efficiency of glycitin family in concentrated soybean protein: 25.7%
pH2.7, heat treatment of enzyme: no, reaction time 6 h
  Decomposition efficiency of glycitin family in concentrated soybean protein: 29.2%
pH2.7, heat treatment of enzyme: yes, reaction time 6 h
  Decomposition efficiency of glycitin family in concentrated soybean protein: 11.5%
pH3, heat treatment of enzyme no, reaction time 0 h
  Decomposition efficiency of glycitin family in roasted soy flour: 7.9
pH3, heat treatment of enzyme no, reaction time 1 h
  Decomposition efficiency of glycitin family in roasted soy flour: 61.3
pH3, heat treatment of enzyme no, reaction time 3 h
  Decomposition efficiency of glycitin family in roasted soy flour: 69.2
pH3, heat treatment of enzyme no, reaction time 6 h
  Decomposition efficiency of glycitin family in roasted soy flour: 68.3
pH3, heat treatment of enzyme yes, reaction time 6 h
  Decomposition efficiency of glycitin family in roasted soy flour: 9.3
pH3.4, heat treatment of enzyme: no, reaction time 0 h
  Decomposition efficiency of glycitin family in defatted soybean: not detected
pH3.4, heat treatment of enzyme: no, reaction time 1 h
  Decomposition efficiency of glycitin family in defatted soybean: not detected
pH3.4, heat treatment of enzyme: no, reaction time 3 h
  Decomposition efficiency of glycitin family in defatted soybean: not detected
pH3.4, heat treatment of enzyme: no, reaction time 6 h
  Decomposition efficiency of glycitin family in defatted soybean: not detected
pH3.4, heat treatment of enzyme: yes, reaction time 6 h
  Decomposition efficiency of glycitin family in defatted soybean: not detected
pH3.5, heat treatment of enzyme no, reaction time 0 h
  Decomposition efficiency of glycitin family in soymilk: 7.2
pH3.5, heat treatment of enzyme no, reaction time 1 h
  Decomposition efficiency of glycitin family in soymilk: 78.1
pH3.5, heat treatment of enzyme no, reaction time 3 h
  Decomposition efficiency of glycitin family in soymilk: 100.0
pH3.5, heat treatment of enzyme no, reaction time 6 h
  Decomposition efficiency of glycitin family in soymilk: 100.0
pH3.5, heat treatment of enzyme yes, reaction time 6 h
  Decomposition efficiency of glycitin family in soymilk: 7.6
pH3.7, heat treatment of enzyme: no, reaction time 0 h
  Decomposition efficiency of glycitin family in concentrated soybean protein: 11.1%
pH3.7, heat treatment of enzyme: no, reaction time 1 h
  Decomposition efficiency of glycitin family in concentrated soybean protein: 66.7%
pH3.7, heat treatment of enzyme: no, reaction time 3 h
  Decomposition efficiency of glycitin family in concentrated soybean protein: 73.5%
pH3.7, heat treatment of enzyme: no, reaction time 6 h
  Decomposition efficiency of glycitin family in concentrated soybean protein: 77.5%
pH3.7, heat treatment of enzyme: yes, reaction time 6 h
  Decomposition efficiency of glycitin family in concentrated soybean protein: 11.3%
pH4, heat treatment of enzyme no, reaction time 0 h
  Decomposition efficiency of glycitin family in roasted soy flour: 8.6
pH4, heat treatment of enzyme no, reaction time 1 h
  Decomposition efficiency of glycitin family in roasted soy flour: 81.2
pH4, heat treatment of enzyme no, reaction time 3 h
  Decomposition efficiency of glycitin family in roasted soy flour: 91.8
pH4, heat treatment of enzyme no, reaction time 6 h
  Decomposition efficiency of glycitin family in roasted soy flour: 100.0
pH4, heat treatment of enzyme yes, reaction time 6 h
  Decomposition efficiency of glycitin family in roasted soy flour: 9.0
pH4.8, heat treatment of enzyme no, reaction time 0 h
  Decomposition efficiency of glycitin family in soymilk: 6.2
pH4.8, heat treatment of enzyme no, reaction time 1 h
  Decomposition efficiency of glycitin family in soymilk: 63.0
pH4.8, heat treatment of enzyme no, reaction time 3 h
  Decomposition efficiency of glycitin family in soymilk: 78.9
pH4.8, heat treatment of enzyme no, reaction time 6 h
  Decomposition efficiency of glycitin family in soymilk: 91.7
pH4.8, heat treatment of enzyme yes, reaction time 6 h
  Decomposition efficiency of glycitin family in soymilk: 6.5
pH4.8, heat treatment of enzyme: no, reaction time 0 h
  Decomposition efficiency of glycitin family in defatted soybean: 36.0%
pH4.8, heat treatment of enzyme: no, reaction time 1 h
  Decomposition efficiency of glycitin family in defatted soybean: 59.9%
pH4.8, heat treatment of enzyme: no, reaction time 3 h
  Decomposition efficiency of glycitin family in defatted soybean: 62.5%
pH4.8, heat treatment of enzyme: no, reaction time 6 h
  Decomposition efficiency of glycitin family in defatted soybean: 68.1%
pH4.8, heat treatment of enzyme: yes, reaction time 6 h
  Decomposition efficiency of glycitin family in defatted soybean: 43.8%
pH5, heat treatment of enzyme no, reaction time 0 h
  Decomposition efficiency of glycitin family in roasted soy flour: 8.6
pH5, heat treatment of enzyme no, reaction time 1 h
  Decomposition efficiency of glycitin family in roasted soy flour: 77.1
pH5, heat treatment of enzyme no, reaction time 3 h
  Decomposition efficiency of glycitin family in roasted soy flour: 93.5
pH5, heat treatment of enzyme no, reaction time 6 h
  Decomposition efficiency of glycitin family in roasted soy flour: 100.0
pH5, heat treatment of enzyme yes, reaction time 6 h
  Decomposition efficiency of glycitin family in roasted soy flour: 9.4
pH5.1, heat treatment of enzyme: no, reaction time 0 h
  Decomposition efficiency of glycitin family in concentrated soybean protein: 11.1%
pH5.1, heat treatment of enzyme: no, reaction time 1 h
  Decomposition efficiency of glycitin family in concentrated soybean protein: 62.1%
pH5.1, heat treatment of enzyme: no, reaction time 3 h
  Decomposition efficiency of glycitin family in concentrated soybean protein: 73.4%
pH5.1, heat treatment of enzyme: no, reaction time 6 h
  Decomposition efficiency of glycitin family in concentrated soybean protein: 78.5%
pH5.1, heat treatment of enzyme: yes, reaction time 6 h
  Decomposition efficiency of glycitin family in concentrated soybean protein: 11.5%
pH5.4, heat treatment of enzyme: no, reaction time 0 h
  Decomposition efficiency of glycitin family in defatted soybean: 36.0%
pH5.4, heat treatment of enzyme: no, reaction time 1 h
  Decomposition efficiency of glycitin family in defatted soybean: 54.9%
pH5.4, heat treatment of enzyme: no, reaction time 3 h
  Decomposition efficiency of glycitin family in defatted soybean: not detected
pH5.4, heat treatment of enzyme: no, reaction time 6 h
  Decomposition efficiency of glycitin family in defatted soybean: 67.7%
pH5.4, heat treatment of enzyme: yes, reaction time 6 h
  Decomposition efficiency of glycitin family in defatted soybean: 60.7%
pH6.2, heat treatment of enzyme no, reaction time 0 h
  Decomposition efficiency of glycitin family in soymilk: 6.2
pH6.2, heat treatment of enzyme no, reaction time 1 h
  Decomposition efficiency of glycitin family in soymilk: 53.6
pH6.2, heat treatment of enzyme no, reaction time 3 h
  Decomposition efficiency of glycitin family in soymilk: 65.5
pH6.2, heat treatment of enzyme no, reaction time 6 h
  Decomposition efficiency of glycitin family in soymilk: 70.4
pH6.2, heat treatment of enzyme yes, reaction time 6 h
  Decomposition efficiency of glycitin family in soymilk: 8.2
pH6.5, heat treatment of enzyme no, reaction time 0 h
  Decomposition efficiency of glycitin family in roasted soy flour: 8.8
pH6.5, heat treatment of enzyme no, reaction time 1 h
  Decomposition efficiency of glycitin family in roasted soy flour: 65.0
pH6.5, heat treatment of enzyme no, reaction time 3 h
  Decomposition efficiency of glycitin family in roasted soy flour: 80.3
pH6.5, heat treatment of enzyme no, reaction time 6 h
  Decomposition efficiency of glycitin family in roasted soy flour: 88.1
pH6.5, heat treatment of enzyme yes, reaction time 6 h
  Decomposition efficiency of glycitin family in roasted soy flour: 9.8
[1]
  Decomposition efficiency of glycitin family in concentrated soybean protein: 11.3%
  Decomposition efficiency of glycitin family in defatted soybean: 60.4%
[2]
  Decomposition efficiency of glycitin family in concentrated soybean protein: 42.2%
  Decomposition efficiency of glycitin family in defatted soybean: 47.1%
[3]
  Decomposition efficiency of glycitin family in concentrated soybean protein: 60.3%
  Decomposition efficiency of glycitin family in defatted soybean: 46.4%
[4]
  Decomposition efficiency of glycitin family in concentrated soybean protein: 68.1%
  Decomposition efficiency of glycitin family in defatted soybean: 41.9%
[5]
  Decomposition efficiency of glycitin family in concentrated soybean protein: 11.1%
  Decomposition efficiency of glycitin family in defatted soybean: 49.7%
pH7.2, heat treatment of enzyme no, reaction time 0 h
  Decomposition efficiency of glycitin family in soymilk: 6.1
pH7.2, heat treatment of enzyme no, reaction time 1 h
  Decomposition efficiency of glycitin family in soymilk: 51.2
pH7.2, heat treatment of enzyme no, reaction time 3 h
  Decomposition efficiency of glycitin family in soymilk: 53.8
pH7.2, heat treatment of enzyme no, reaction time 6 h
  Decomposition efficiency of glycitin family in soymilk: 58.4
pH7.2, heat treatment of enzyme yes, reaction time 6 h
  Decomposition efficiency of glycitin family in soymilk: 5.6
pH7.8, heat treatment of enzyme: no, reaction time 0 h
  Decomposition efficiency of glycitin family in defatted soybean: 33.2%
pH7.8, heat treatment of enzyme: no, reaction time 1 h
  Decomposition efficiency of glycitin family in defatted soybean: 42.5%
pH7.8, heat treatment of enzyme: no, reaction time 3 h
  Decomposition efficiency of glycitin family in defatted soybean: 46.8%
pH7.8, heat treatment of enzyme: no, reaction time 6 h
  Decomposition efficiency of glycitin family in defatted soybean: 50.9%
pH7.8, heat treatment of enzyme: yes, reaction time 6 h
  Decomposition efficiency of glycitin family in defatted soybean: 44.2%
pH8.5, heat treatment of enzyme no, reaction time 0 h
  Decomposition efficiency of glycitin family in roasted soy flour: 9.6
pH8.5, heat treatment of enzyme no, reaction time 1 h
  Decomposition efficiency of glycitin family in roasted soy flour: 28.2
pH8.5, heat treatment of enzyme no, reaction time 3 h
  Decomposition efficiency of glycitin family in roasted soy flour: 40.1
pH8.5, heat treatment of enzyme no, reaction time 6 h
  Decomposition efficiency of glycitin family in roasted soy flour: 47.4
pH8.5, heat treatment of enzyme yes, reaction time 6 h
  Decomposition efficiency of glycitin family in roasted soy flour: 9.1
pH8.6, heat treatment of enzyme: no, reaction time 0 h
  Decomposition efficiency of glycitin family in concentrated soybean protein: 11.7%
pH8.6, heat treatment of enzyme: no, reaction time 1 h
  Decomposition efficiency of glycitin family in concentrated soybean protein: 15.4%
pH8.6, heat treatment of enzyme: no, reaction time 3 h
  Decomposition efficiency of glycitin family in concentrated soybean protein: 21.0%
pH8.6, heat treatment of enzyme: no, reaction time 6 h
  Decomposition efficiency of glycitin family in concentrated soybean protein: 30.9%
pH8.6, heat treatment of enzyme: yes, reaction time 6 h
  Decomposition efficiency of glycitin family in concentrated soybean protein: 11.3%
pH11.6, heat treatment of enzyme no, reaction time 0 h
  Decomposition efficiency of glycitin family in soymilk: 6.2
pH11.6, heat treatment of enzyme no, reaction time 1 h
  Decomposition efficiency of glycitin family in soymilk: 49.6
pH11.6, heat treatment of enzyme no, reaction time 3 h
  Decomposition efficiency of glycitin family in soymilk: 53.5
pH11.6, heat treatment of enzyme no, reaction time 6 h
  Decomposition efficiency of glycitin family in soymilk: 56.0
pH11.6, heat treatment of enzyme yes, reaction time 6 h
  Decomposition efficiency of glycitin family in soymilk: 5.8
Roasted soy flour, pH 4 for 6 hours
  existing ratio of aglycon of each isoflavone family: 100%
soymilk, pH 3.5 for 6 hours
  existing ratio of aglycon of each isoflavone family: 100%
